{"source": "patent US10344335B2", "about": "“Mutant calreticulin for the diagnosis of myeloid malignancies” (CEMM—FORSCHUNGSZENTRUM FUER MOLEKULARE MEDIZIN GMBH, priority 2013, dated 2019)", "tested_on": "Ba/F3 cells expressing empty vector (GFP), CALR wild type or CALR del52", "assay": "Sensitivity of Ba/F3 cells to the inhibitor SAR302503 (CellTiter-Glo cell viability)", "assay_type": "cell-based, murine", "conditions": "Ba/F3 cells expressing CALR wild type vs CALR del52; 48 hours; 10 ng/ml interleukin-3; dilution series, highest concentration 40 μM; listed as JAK2 kinase inhibitor", "procedure": "Ba/F3 cells expressing the empty vector (GFP), CALR wild type (CALR wt-GFP) or CALR mutant (CALR del52-GFP) were analyzed by defining cell viability after 48 hours in presence of decreasing SAR302503. For relative viability, relative luminescence units were normalized to the DMSO control. Error bars represent standard error of the mean.\nTo define the sensitivity to the inhibitor SAR302503 (Sanofi), Ba/F3 cells were plated in 96-well plates at 25000 cells per well in triplicates on a dilution series of SAR302503 (highest concentration 40 μM) and in presence of 10 ng/ml interleukin-3. After 48 hours cell viability was determined by the CellTiter-Glo® Luminescent Cell Viability Assay (Promega)."}
{"smiles": "Cc1cnc(Nc2ccc(OCCN3CCCC3)cc2)nc1Nc1cccc(S(=O)(=O)NC(C)(C)C)c1", "note": "[SAR302503]", "values": [{"measurement": "sensitivity of cells to SAR302503 (cell viability)", "value": "suppressed equally"}]}
